Measurements taken from patent US8969590B1, “Autotaxin inhibitors” (University of Memphis Research Foundation, priority 2007, dated 2015).

How the values were obtained:
ATX (autotaxin) = target: T1, ATX (autotaxin) (Homo sapiens, UniProt Q13822); experiment: ATX inhibition assay: ATX-catalyzed FS-3 hydrolysis, fluorescence, concentrated conditioned medium from MDA MB-435 cells as ATX source; assay type: biochemical; settings: for % ATX Activity at 10 μM: 10 μM compound, FS-3 substrate, read at 1 hour, normalized to vehicle control, mean ± S.D. of at least three wells
T1 construct: conditioned serum-free medium (CCM) from MDA MB-435 cells as the source of ATX; endogenous in cells; host or cells: MDA-MB-435 cells (secreted into serum-free conditioned medium, concentrated ~10 fold)
Procedure: The efficacy of these compounds was determined by evaluating fluorescence of autotaxin at specific wavelengths. The test protocol was as follows:
In terms of ATX inhibition analysis determinations, MDA-MB-435 cells were cultured at 37° C. and 5% CO2 in Dulbecco's Modified Eagle Medium (DMEM) (MediaTech, Herndon, Va.) containing 5% fetal bovine serum (Hyclone, Logan, Utah), 100 U/ml penicillin, 100 μg/ml streptomycin (Hyclone, Logan, Utah) and 292 μg/ml L-glutamine (Hyclone, Logan, Utah). Cells were grown to ˜80% confluence at which time the cells were washed twice with sterile phosphate buffered saline prior to the addition of serum free DMEM containing L-glutamine. Conditioned medium was collected after 24-30 hours, supplemented with 20% ethylene glycol and was clarified by centrifugation at 3000×g and 4° C. for 10 min. The media was concentrated ˜10 fold and buffer exchanged into Tris (50 mM, pH 7.4) containing 20% ethylene glycol using an Amicon 8050 cell fitted with a PM30 filter (Millipore, Billerica, Mass.). Aliquots of concentrated conditioned media were stored at 4° C. until needed.
ATX inhibition was assayed using FS-3 (Echelon Biosciences, Inc., Salt Lake City, Utah, USA) as a substrate and ˜10 times concentrated conditioned serum-free medium (CCM) from MDA MB-435 cells as the source of ATX. Assays were performed in 96-well plates with CCM comprising one-third of the total volume and final FS-3 and charcoal-stripped fatty acid free BSA concentrations of 1 and 30 μM in assay buffer (1 mM each CaCl2 and MgCl2, 5 mM KCl, 140 mM NaCl, 50 mM Tris pH 8.0). Fluorescence was read at 5 minute intervals by a Synergy2 system (BioTek, Winooski, Vt.) with excitation and emission wavelengths of 485 and 538 nm, respectively. Results are shown at 1 hour, at which point all fluorescence changes as a function of time were linear. Fluorescence readings were normalized to vehicle control after subtraction of fluorescence in the absence of CCM. Data are shown as the mean±S.D. of at least three wells.

ATX = ATX (Homo sapiens, UniProt Q13822); settings: prior art; cited from earlier work

Row | SMILES | % ATX Activity at 10 μM (ATX (autotaxin)) [%] | also measured
1 | O=C(O)c1cc(C(=O)O)cc(N2C(=O)c3ccc(C(=O)c4ccc5c(c4)C(=O)N(c4cc(C(=O)O)cc(C(=O)O)c4)C5=O)cc3C2=O)c1 [Compound 5186522] | 49 ± 10 | 
2 | O=C(O)c1ccc(Oc2ccc(C(=O)c3ccc4c(c3)C(=O)N(c3cccc5ccccc35)C4=O)cc2)cc1 [Compound 5210574] | 31 ± 5 | 
3 | O=C(NN1C(=O)c2ccc(C(=O)c3ccc4c(c3)C(=O)N(NC(=O)c3ccncc3)C4=O)cc2C1=O)c1ccncc1 [Compound 5538444] | 31 ± 4 | 
4 | O=C(O)c1ccc(NC(=O)c2ccc3c(c2)C(=O)N(c2ccc(/N=N/c4ccccc4)cc2)C3=O)cc1 [Compound 5564676] |  | ATX inhibition (reduction of ATX-catalyzed FS-3 hydrolysis) (ATX (autotaxin); 10 μM concentration): no reduction levels at all
5 | O=C(O)c1cccc(NC(=O)c2ccc3c(c2)C(=O)N(c2ccc(/N=N/c4ccccc4)cc2)C3=O)c1 [Compound 5564949] | 45 ± 10 | inhibition at 10 µM (ATX (autotaxin); 10 μM concentration, read-out: ATX inhibition (reduction of ATX-catalyzed FS-3 hydrolysis)): 51%
6 | O=C(O)c1ccc2c(c1)C(=O)N(c1cccc(C(=O)Nc3cccc(Cl)c3)c1)C2=O [Compound 5711925] | 48 ± 5 | 
7 | O=C(O)c1ccc(CN2C(=O)c3ccc(C(=O)c4ccc5c(c4)C(=O)N(Cc4ccc(C(=O)O)cc4)C5=O)cc3C2=O)cc1 [Compound 5761473] | 46 ± 6 | 
8 | CCn1c(SCC(=O)Nc2ccc(C(C)=O)cc2)nc2nc3c(cc2c1=O)CCCC3 [Compound 7921385] | 21 ± 6 | 
9 | N[C@@H](Cc1c[nH]cn1)C(=O)O [L-histidine] |  | Concentration required for ATX inhibition efficacy (ATX): millimolar concentrations were required for any efficacy
